From US20210115040A1, “OGA INHIBITOR COMPOUNDS” (Janssen Pharmaceutica NV, priority 2018, published 2021)

The molecules below were run against T1, recombinant human Meningioma Expressed Antigen 5 (MGEA5), also referred to as O-GlcNAcase (OGA) (Homo sapiens, UniProt O60502) (assay: OGA biochemical assay (inhibition of FM-GlcNAc hydrolysis, fluorescence)). Conditions: FM-GlcNAc substrate, 6 h at room temperature, read-out: Enzymatic hOGA, pIC50 (converted).
T1 construct: Full length OGA enzyme was purchased at OriGene (cat #TP322411); purchased OriGene TP322411
T1 sequence (O60502 1-916): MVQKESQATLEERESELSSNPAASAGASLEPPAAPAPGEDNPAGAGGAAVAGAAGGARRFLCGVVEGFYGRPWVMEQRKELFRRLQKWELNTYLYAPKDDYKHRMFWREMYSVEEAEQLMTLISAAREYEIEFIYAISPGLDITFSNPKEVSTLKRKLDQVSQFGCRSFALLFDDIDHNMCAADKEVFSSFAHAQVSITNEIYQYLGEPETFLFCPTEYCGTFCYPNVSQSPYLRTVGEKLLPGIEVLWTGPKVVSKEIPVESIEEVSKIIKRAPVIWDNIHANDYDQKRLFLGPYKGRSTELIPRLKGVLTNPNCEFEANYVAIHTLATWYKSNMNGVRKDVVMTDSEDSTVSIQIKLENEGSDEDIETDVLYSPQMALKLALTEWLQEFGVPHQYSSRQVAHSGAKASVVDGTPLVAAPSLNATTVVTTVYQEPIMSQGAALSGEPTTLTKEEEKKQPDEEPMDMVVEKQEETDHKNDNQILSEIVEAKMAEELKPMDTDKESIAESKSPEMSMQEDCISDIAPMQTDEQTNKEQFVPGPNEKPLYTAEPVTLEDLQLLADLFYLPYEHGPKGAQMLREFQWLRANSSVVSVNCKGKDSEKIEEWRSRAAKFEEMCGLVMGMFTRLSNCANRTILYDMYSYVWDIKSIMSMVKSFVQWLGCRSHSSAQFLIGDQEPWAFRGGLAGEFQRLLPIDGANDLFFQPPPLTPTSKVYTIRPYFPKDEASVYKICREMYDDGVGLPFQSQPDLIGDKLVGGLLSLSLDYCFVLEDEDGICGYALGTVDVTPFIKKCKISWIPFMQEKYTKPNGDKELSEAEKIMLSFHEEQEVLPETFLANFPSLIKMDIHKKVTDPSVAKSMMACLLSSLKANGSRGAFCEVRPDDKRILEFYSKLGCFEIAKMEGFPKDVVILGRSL
Description: The assay is based on the inhibition of the hydrolysis of fluorescein mono-β-D-N-Acetyl-Glucosamine (FM-GlcNAc) (Mariappa et al. 2015, Biochem J 470:255) by the recombinant human Meningioma Expressed Antigen 5 (MGEA5), also referred to as O-GlcNAcase (OGA). The hydrolysis FM-GlcNAc (Marker Gene technologies, cat #M1485) results in the formation of β-D-N-glucosamineacetate and fluorescein. The fluorescence of the latter can be measured at excitation wavelength 485 nm and emission wavelength 538 nm. An increase in enzyme activity results in an increase in fluorescence signal. Full length OGA enzyme was purchased at OriGene (cat #TP322411). The enzyme was stored in 25 mM Tris.HCl, pH 7.3, 100 mM glycine, 10% glycerol at −20° C. Thiamet G and GlcNAcStatin were tested as reference compounds (Yuzwa et al. 2008 Nature Chemical Biology 4:483; Yuzwa et al. 2012 Nature Chemical Biology 8:393). The assay was performed in 200 mM Citrate/phosphate buffer supplemented with 0.005% Tween-20. 35.6 g Na2HPO4 2H2O (Sigma, #C0759) were dissolved in 1 L water to obtain a 200 mM solution. 19.2 g citric acid (Merck, #1.06580) was dissolved in 1 L water to obtain a 100 mM solution. pH of the sodiumphosphate solution was adjusted with the citric acid solution to 7.2. The buffer to stop the reaction consists of a 500 mM Carbonate buffer, pH 11.0. 734 mg FM-GlcNAc were dissolved in 5.48 mL DMSO to obtain a 250 mM solution and was stored at −20° C. OGA was used at a 2 nM concentration and FM-GlcNAc at a 100 uM final concentration. Dilutions were prepared in assay buffer.
50 nl of a compound dissolved in DMSO was dispensed on Black Proxiplate™ 384 Plus Assay plates (Perkin Elmer, #6008269) and 3 μl fl-OGA enzyme mix added subsequently. Plates were pre-incubated for 60 min at room temperature and then 2 μl FM-GlcNAc substrate mix added. […] Plates were briefly centrifuged for 1 min at 1000 rpm and incubate at room temperature for 6 h. To stop the reaction 5 μl STOP buffer were added and plates centrifuge again 1 min at 1000 rpm. Fluorescence was quantified in the Thermo Scientific Fluoroskan Ascent or the PerkinElmer EnVision with excitation wavelength 485 nm and emission wavelength 538 nm.
For analysis a best-fit curve is fitted by a minimum sum of squares method. From this an IC50 value and Hill coefficient was obtained. High control (no inhibitor) and low control (saturating concentrations of standard inhibitor) were used to define the minimum and maximum values.

| SMILES | IC50 [nM] |
| --- | --- |
| Cc1cc(C[C@H]2CCCN(C(C)c3ccc4occc4n3)C2)cc(C)n1 (mixture of isomers) [Compound 38] | 126 |
| Cc1cc(C[C@@H]2CCN(C(C)c3cnc4[nH]c(C)nc4c3)C2)cc(C)n1 (mixture of isomers) [Compound 7] | 50.1 |
| Cc1cc(C[C@@H]2CCN(C(C)c3ccc4oc(C)nc4n3)C2)cc(C)n1 (mixture of isomers) [Compound 26] | 39.8 |
| COc1cc(C[C@@H]2CCN(C(C)c3ccc4oc(C)nc4n3)C2)cc(C)n1 (mixture of isomers) [Compound 28] | 100 |
| Cc1cc(C[C@H]2CCN(C(C)c3ccc4oc(C)nc4n3)C2)cc(C(F)(F)F)n1 (mixture of isomers) [Compound 29] | 126 |
| Cc1cc(C2CCCN(C(C)c3cc4nc(C)oc4cc3F)C2)cc(C)n1 (racemic) [Compound 32] | 7.94 |
| Cc1cc(OC[C@H]2CCCN(C(C)c3cc4nc(C)oc4cc3F)C2)cc(C)n1 (mixture of isomers) [Compound 34] | 10 |
| Cc1cc(OC[C@@H]2CCCN(C(C)c3cc4nc(C)oc4cc3F)C2)cc(C)n1 (mixture of isomers) [Compound 35] | 100 |
| COc1cc(C[C@@H]2CCN(C(C)c3ccc4sc(C)nc4n3)C2)cc(C)n1 (mixture of isomers) [Compound 44] | 126 |
| Cc1cc(C[C@H]2CCN(C(C)c3ccc4nc(C)sc4c3)C2)cc(C)n1 (single isomer, unassigned) [Compound 57] | > 10000 |

Second part, the molecule after the results:

| IC50 [nM] | SMILES |
| --- | --- |
| 251 | COc1cc(O[C@@H]2CCN(C(C)c3ccc4oc(C)nc4n3)C2)cc(C)n1 (mixture of isomers) [Compound 21ab] |
| 316 | Cc1cc(OC[C@@H]2CCCN(C(C)c3ccc4sc(C)nc4n3)C2)cc(C)n1 (mixture of isomers) [Compound 45ab] |
| 20 | Cc1cc(C[C@@H]2CCN(C(C)c3cc4nc(C)oc4cc3F)C2)cc(C)n1 (mixture of isomers) [Compound 33ab] |
| 1580 | Cc1cc(C[C@H]2CCCN([C@@H](C)c3ccc4cn(C)nc4n3)C2)cc(C)n1 (relative stereo) [Compound 12a] |
| 15.8 | Cc1cc(C[C@H]2CCCN([C@H](C)c3ccc4cn(C)nc4n3)C2)cc(C)n1 (relative stereo) [Compound 12b] |
| 200 | COc1cc(C[C@H]2CCCN([C@@H](C)c3ccc4oc(C)nc4n3)C2)cc(C)n1 (relative stereo) [Compound 23b] |
| 2.51 | Cc1cc(C[C@@H]2CCN([C@H](C)c3cc4nc(C)oc4cc3F)C2)cc(C)n1 (relative stereo) [Compound 33a] |
| 63.1 | Cc1cc(C[C@@H]2CCN([C@@H](C)c3cc4nc(C)oc4cc3F)C2)cc(C)n1 (relative stereo) [Compound 33b] |
| 7.94 | Cc1cc(C[C@H]2CCCN(C(C)c3cnc4[nH]c(C)nc4c3)C2)cc(C)n1 (single isomer, unassigned) [Compound 6b] |
| 501 | Cc1cc(C[C@H]2CCCN(C(C)c3ccc4sc(C)nc4n3)C2)cc(C)n1 (single isomer, unassigned) [Compound 42a] |

Same assay, conditions: FM-GlcNAc substrate, maximal effect

| Enzymatic Emax (%) | SMILES |
| --- | --- |
| 100 | Cc1cc(C[C@H]2CCCN(C(C)c3cnc4[nH]c(C)nc4c3)C2)cc(C)n1 (single isomer, unassigned) [Compound 6b] |

Same assay, conditions: FM-GlcNAc substrate, maximal effect, read-out: Enzymatic Emax (%)

| SMILES | Emax [%] |
| --- | --- |
| Cc1cc(C[C@H]2CCCN(C(C)c3ccc4occc4n3)C2)cc(C)n1 (mixture of isomers) [Compound 38] | 100 |
| Cc1cc(C[C@@H]2CCN(C(C)c3cnc4[nH]c(C)nc4c3)C2)cc(C)n1 (mixture of isomers) [Compound 7] | 100 |
| Cc1cc(C[C@@H]2CCN(C(C)c3ccc4oc(C)nc4n3)C2)cc(C)n1 (mixture of isomers) [Compound 26] | 101 |
| COc1cc(C[C@@H]2CCN(C(C)c3ccc4oc(C)nc4n3)C2)cc(C)n1 (mixture of isomers) [Compound 28] | 99 |
| Cc1cc(C[C@H]2CCN(C(C)c3ccc4oc(C)nc4n3)C2)cc(C(F)(F)F)n1 (mixture of isomers) [Compound 29] | 103 |
| Cc1cc(C2CCCN(C(C)c3cc4nc(C)oc4cc3F)C2)cc(C)n1 (racemic) [Compound 32] | 99 |
| Cc1cc(OC[C@H]2CCCN(C(C)c3cc4nc(C)oc4cc3F)C2)cc(C)n1 (mixture of isomers) [Compound 34] | 101 |
| Cc1cc(OC[C@@H]2CCCN(C(C)c3cc4nc(C)oc4cc3F)C2)cc(C)n1 (mixture of isomers) [Compound 35] | 101 |
| COc1cc(C[C@@H]2CCN(C(C)c3ccc4sc(C)nc4n3)C2)cc(C)n1 (mixture of isomers) [Compound 44] | 99 |
| Cc1cc(C[C@H]2CCN(C(C)c3ccc4nc(C)sc4c3)C2)cc(C)n1 (single isomer, unassigned) [Compound 57] | 28 |

Second part, the molecule after the results:

| Emax [%] | SMILES |
| --- | --- |
| 97 | COc1cc(O[C@@H]2CCN(C(C)c3ccc4oc(C)nc4n3)C2)cc(C)n1 (mixture of isomers) [Compound 21ab] |
| 98 | Cc1cc(OC[C@@H]2CCCN(C(C)c3ccc4sc(C)nc4n3)C2)cc(C)n1 (mixture of isomers) [Compound 45ab] |
| 99 | Cc1cc(C[C@@H]2CCN(C(C)c3cc4nc(C)oc4cc3F)C2)cc(C)n1 (mixture of isomers) [Compound 33ab] |
| 88 | Cc1cc(C[C@H]2CCCN([C@@H](C)c3ccc4cn(C)nc4n3)C2)cc(C)n1 (relative stereo) [Compound 12a] |
| 100 | Cc1cc(C[C@H]2CCCN([C@H](C)c3ccc4cn(C)nc4n3)C2)cc(C)n1 (relative stereo) [Compound 12b] |
| 101 | COc1cc(C[C@H]2CCCN([C@@H](C)c3ccc4oc(C)nc4n3)C2)cc(C)n1 (relative stereo) [Compound 23b] |
| 100 | Cc1cc(C[C@@H]2CCN([C@H](C)c3cc4nc(C)oc4cc3F)C2)cc(C)n1 (relative stereo) [Compound 33a] |
| 101 | Cc1cc(C[C@@H]2CCN([C@@H](C)c3cc4nc(C)oc4cc3F)C2)cc(C)n1 (relative stereo) [Compound 33b] |
| 98 | Cc1cc(C[C@H]2CCCN(C(C)c3ccc4sc(C)nc4n3)C2)cc(C)n1 (single isomer, unassigned) [Compound 42a] |
